Where “and” joins values, the source holds several entries; their conditions need not be identical. Equal values may be shown once.
Key:
[1] = test system: anti-TFV antibodies conjugated to colloidal gold; test: Negative readout lateral flow assay, TFV-DP in PBS; type: binding
Source text: […] Samples were loaded onto negative readout lateral flow assays. Lateral flow assays had anti-TFV antibodies conjugated to colloidal gold at the conjugate pad and TFV derivates striped at the test line. Visual reads were made at 10- and 15-minute time points.

[2] = red blood cells and dried blood spots; cited from earlier work
[3] = test system: anti-TFV antibodies conjugated to colloidal gold; test: Negative readout lateral flow assay, TFV-DP in whole blood; type: binding; set-up: Visual Read Results / Test Line Visual Read Results: scale not given here; settings: for TFV-DP conversion to TFV: phosphatase 30 minutes; for Visual Read Results: WB with phosphatase
Experimental: […] Samples were diluted by 1:10 or 1:2 and loaded onto negative readout lateral flow assays. Visual reads were made at 10- and 15-minute time points.
Samples were loaded onto negative readout lateral flow assays. Visual reads were made at 10- and 15-minute time points. Results are shown in FIGS. 11A and 11B and Table 10.

[4] = test system: anti-TFV monoclonal antibody-HRP conjugates; test: Whole-blood TFV-DP ELISA with phosphatase; type: binding; settings: for OD Value: replicates
Experimental: ELISA plates and reagents were equilibrated at room temperature. 50 μL of TFV-DP standard were plated onto a dilution plate in triplicate to generate a standard curve. TFV-DP standards were 250, 100, 50, 25, 10, 5, and 1 ng/mL, along with a blank. 50 μL of whole blood samples were added in duplicate or triplicate.
[…] 25 μL of conjugate solution containing anti-TFV monoclonal antibody-HRP conjugates was added to each well.
The dilution plate was covered and incubated at 25° C. for 30 minutes with shaking at 300-600 rpm. After incubation, the total volume of the dilution plate wells was transferred to an ELISA plate pre-coated with tenofovir-BSA conjugate (TFV-BSA). The ELISA plate was covered and incubated at 25° C. for 30 minutes with shaking at 300-600 rpm. The ELISA plate was washed with 350 μL per well of wash buffer for a total of 6 cycles, with a final aspirate.
100 μL of TMB substrate was added to each well. The ELISA plate was incubated in the dark at 25° C. for 30 minutes. 100 μL of stop solution was added to each well to quench the reactions. Absorbance was measured at 450 (primary) and 630 (reference) nm wavelengths within 15 minutes of quenching the reactions. OD was calculated by subtracting the reference absorbance from the primary absorbance. A standard curve was generated using a 4-parameter logistic regression or a 5-parameter logistic regression. The percent inhibition was calculated using the following formula: […]

C[C@H](Cn1cnc2c(N)ncnc21)OCP(=O)(O)OP(=O)(O)OP(=O)(O)O [TFV-DP, tenofovir diphosphate]
Visual Read Results (Enzyme Present) ([1]; 325 ng/mL, 10 minutes): 5 | Visual Read Results (No Enzyme Present) ([1]; 325 ng/mL, 10 minutes): 8 | Visual Read Results (Enzyme Present) ([1]; 325 ng/mL, 15 minutes): 5/6 | Visual Read Results (No Enzyme Present) ([1]; 325 ng/mL, 15 minutes): 8 | Visual Read Results (Enzyme Present) ([1]; 1300 ng/mL, 10 minutes): 3 | Visual Read Results (No Enzyme Present) ([1]; 1300 ng/mL, 10 minutes): 7 | Visual Read Results (Enzyme Present) ([1]; 1300 ng/mL, 15 minutes): 3 | Visual Read Results (No Enzyme Present) ([1]; 1300 ng/mL, 15 minutes): 7 | Visual Read Results (Enzyme Present) ([1]; 3250 ng/mL, 10 minutes): 0/1 | Visual Read Results (No Enzyme Present) ([1]; 3250 ng/mL, 10 minutes): 6 | Visual Read Results (Enzyme Present) ([1]; 3250 ng/mL, 15 minutes): 0/1 | Visual Read Results (No Enzyme Present) ([1]; 3250 ng/mL, 15 minutes): 6 | TFV-DP conversion to TFV ([1]; phosphatase from sweet potato extract, 30 minutes): Conversion of TFV-DP to TFV was observed | TFV-DP conversion to TFV ([1]; without phosphatase treatment): No conversion of TFV-DP to TFV was observed | accumulation from the first dose to steady state [2]: 25 fold | half-life [2]: 17 days | TFV-DP conversion to TFV ([3]; WB 975 and 325 ng/mL, diluted 1:10 or 1:2): Conversion of TFV-DP to TFV was observed | TFV-DP conversion to TFV ([3]; WB 975 and 325 ng/mL, no further dilution): Conversion of TFV-DP to TFV was observed | TFV-DP conversion to TFV ([3]; WB 1000-12000 ng/mL, diluted 1:10): Conversion of TFV-DP to TFV was observed | Test Line Visual Read Results ([3]; WB diluted 1:10, 1000 ng/ml, 10 minutes): 7 | Test Line Visual Read Results ([3]; WB diluted 1:10, 1000 ng/ml, 15 minutes): 7 | Test Line Visual Read Results ([3]; WB diluted 1:10, 2000 ng/ml, 10 minutes): 7 | Test Line Visual Read Results ([3]; WB diluted 1:10, 2000 ng/ml, 15 minutes): 7 | Test Line Visual Read Results ([3]; WB diluted 1:10, 3000 ng/ml, 10 minutes): 7 | Test Line Visual Read Results ([3]; WB diluted 1:10, 3000 ng/ml, 15 minutes): 7 | Test Line Visual Read Results ([3]; WB diluted 1:10, 3250 ng/ml, 10 minutes): 7 | Test Line Visual Read Results ([3]; WB diluted 1:10, 3250 ng/ml, 15 minutes): 7 | Test Line Visual Read Results ([3]; WB diluted 1:10, 4000 ng/ml, 10 minutes): 6 | Test Line Visual Read Results ([3]; WB diluted 1:10, 4000 ng/ml, 15 minutes): 6 | Test Line Visual Read Results ([3]; WB diluted 1:10, 5000 ng/ml, 10 minutes): 5 | Test Line Visual Read Results ([3]; WB diluted 1:10, 5000 ng/ml, 15 minutes): 5 | Test Line Visual Read Results ([3]; WB diluted 1:10, 6000 ng/ml, 10 minutes): 5 | Test Line Visual Read Results ([3]; WB diluted 1:10, 6000 ng/ml, 15 minutes): 5 | Test Line Visual Read Results ([3]; WB diluted 1:10, 7000 ng/ml, 10 minutes): 5 | Test Line Visual Read Results ([3]; WB diluted 1:10, 7000 ng/ml, 15 minutes): 5 | Test Line Visual Read Results ([3]; WB diluted 1:10, 8000 ng/ml, 10 minutes): 5 | Test Line Visual Read Results ([3]; WB diluted 1:10, 8000 ng/ml, 15 minutes): 5 | Test Line Visual Read Results ([3]; WB diluted 1:10, 9000 ng/ml, 10 minutes): 4 | Test Line Visual Read Results ([3]; WB diluted 1:10, 9000 ng/ml, 15 minutes): 4 | Test Line Visual Read Results ([3]; WB diluted 1:10, 9750 ng/ml, 10 minutes): 4 | Test Line Visual Read Results ([3]; WB diluted 1:10, 9750 ng/ml, 15 minutes): 4 | Test Line Visual Read Results ([3]; WB diluted 1:10, 10000 ng/ml, 10 minutes): 4 | Test Line Visual Read Results ([3]; WB diluted 1:10, 10000 ng/ml, 15 minutes): 4 | Test Line Visual Read Results ([3]; WB diluted 1:10, 11000 ng/ml, 10 minutes): 4 | Test Line Visual Read Results ([3]; WB diluted 1:10, 11000 ng/ml, 15 minutes): 4 | Test Line Visual Read Results ([3]; WB diluted 1:10, 12000 ng/ml, 10 minutes): 3 | Test Line Visual Read Results ([3]; WB diluted 1:10, 12000 ng/ml, 15 minutes): 3 | Visual Read Results ([3]; diluted 1:10 or 1:2, 325 ng/ml, 10 minutes): 6 | Visual Read Results ([3]; diluted 1:10 or 1:2, 325 ng/ml, 15 minutes): 6 | Visual Read Results ([3]; diluted 1:10 or 1:2, 975 ng/ml, 10 minutes): 4 | Visual Read Results ([3]; diluted 1:10 or 1:2, 975 ng/ml, 15 minutes): 4 | Visual Read Results ([3]; no further dilution (Table 10), 325 ng/ml, 10 minutes): 3/4 | Visual Read Results ([3]; no further dilution (Table 10), 325 ng/ml, 15 minutes): 3/4 | Visual Read Results ([3]; no further dilution (Table 10), 975 ng/ml, 10 minutes): 0 | Visual Read Results ([3]; no further dilution (Table 10), 975 ng/ml, 15 minutes): 0 | % Inhibition ([4]; No Phosphatase): 33.05% | OD Average ([4]; No Phosphatase): 1.0986 | OD Value ([4]; No Phosphatase): 1.088 and 1.2148 and 1.2340 and 1.1083 | % Inhibition ([4]; Phosphatase): 76.63% | OD Average ([4]; Phosphatase): 0.3835 | OD Value ([4]; Phosphatase): 0.3853 and 0.3923 and 0.3798 and 0.3766

— patent US20240133877A1, “PRODUCTS AND METHODS FOR MONITORING ADHERENCE TO NUCLEOSIDE REVERSE TRANSCRIPTASE INHIBITOR THERAPY” (priority 2017, published 2024)
